pIC50: −log10 of the molar value.
Target: Bromodomain-containing protein 4 (Homo sapiens, UniProt O60885)
Test: Time Resolved Fluorescence Resonance Energy Transfer (TR-FRET) Assay: The binding of compounds to bromodomain BRD4 (44-168), BRD4 (333-460), and BRD4 (1-477 or 44-460) was assessed using a time resolved fluorescent resonance energy transfer binding assay (1), that measures the binding of a fluorescently labeled probe molecule to the bromodomain protein. The bromodomain protein, fluorescent probe molecule (either a biotinylated histone peptide or a fluorescently labeled small molecule), and dose-responsed test compound are incubated together to reach thermodynamic equilibrium. In the absence of a test compound, the bromodomain and small molecule are bound, resulting in a high fluorescent signal. In the presence of a sufficient concentration of inhibitor, this interaction is disrupted resulting in a lost of fluorescent resonance energy transfer.All assay components were dissolved in buffer composition 20 mM Hepes pH 7.5, 150 mM NaCl, 5 mM DTT, 0.005% Tween 20, and 100 ug/ml BSA for BRD4 (1-477 and 44-460). The final concentrations of the bromodomain proteins are 1.6 nM BRD4(44-168), 1 nM BRD4(333-460), and 1 nM BRD4(1-477 or 44-460), and the fluorescent probe molecule is 100 nM, 50 nM, and 7.5 nM respectively. All proteins were biotinylated. […]

SMILES: Cc1nnn(C)c1-c1cnc2c3cc(C4CCN(C(=O)OC(C)(C)C)CC4)ccc3n([C@H](c3ccccc3)C3CCOCC3)c2c1
- pIC50: > 8.30

From ChEMBL document CHEMBL5726158, “5H-pyrido[3,2-B]indole compounds as anticancer agents” (2019)
